How the values were obtained:
[1] = Metabolites of DCDQ identified in rats by LC/MS analysis (Table 18); format: in vivo, Sprague-Dawley rats; conditions: P = plasma, U = urine, B = brain, F = feces
Method: An Agilent Model 1100 HPLC system (Agilent Technologies, Wilmington, Del.) including an autosampler and diode array UV detector was used for LC/MS analysis of plasma and urine samples. The UV detector was set to monitor 200 to 400 nm. For selected LC/MS analyses, radiochromatograms were acquired using a β-Ram model 3 radioactivity flow detector (IN/US Systems Inc., Tampa, Fla.) equipped with a solid scintillant flow cell. Fecal samples were also analyzed using a Waters Alliance model 2690 HPLC system. It was equipped with a built-in autosampler and a model 996 diode array UV detector set to 210-350 nm. The HPLC flow was split between a Radiomatic model 150TR flow scintillation analyzer (Perkin Elmer) and the mass spectrometer. Other HPLC conditions were the same as condition B described above.
The mass spectrometer used for metabolite characterization for plasma and urine was a Micromass Q-TOF-2 quadrupole time-of-flight hybrid mass spectrometer (Waters). The mass spectrometer was equipped with an electrospray ionization (ESI) interface and operated in the positive ionization mode. Collision energy settings of 5 and 30 eV were used for full MS and MS/MS scans, respectively. Settings for the mass spectrometer are listed below.
A Micromass Quattro Micro mass spectrometer (Waters) was also used to analyze the fecal samples. It was equipped with an electrospray ionization (ESI) interface and operated in the positive ionization mode. Settings for the mass spectrometer are listed below.
LC/MS/MS in the selected reaction-monitoring (SRM) mode (LC/SRM) was conducted with the triple quadruple mass spectrometer to monitor DCDQ and its metabolites in fecal samples. The transitions monitored are listed below.

[2] = Incubation of [14C]DCDQ with dog liver microsomes; format: in vitro ADME, beagle dogs
Method: (§1) [^14C]DCDQ was mixed with non-radiolabeled DCDQ (1:3 or 1:5) in the incubations. Microsomal incubations consisted of [^14C]DCDQ, magnesium chloride (10 mM) and liver microsomes incubated in 0.5 mL of 0.1 M potassium phosphate buffer, pH 7.4. [^14C]DCDQ (20 μL) in water was added to the incubation tubes containing buffer, magnesium chloride solution and microsomes. After mixing, the tubes were pre-incubated for 2 minutes in a shaking water bath at 37° C. The reactions were initiated by the addition of UDPGA or the NADPH regenerating system. UDPGA was added to incubations as a 50 μL aliquot of a 20 mM solution in water, to give a final concentration of 2 mM. An NADPH regenerating system (30 μL) was added to incubations to evaluate CYP450-mediated metabolism. The NADPH regenerating system consisted of glucose-6-phosphate (2 mg/mL), glucose-6-phosphate dehydrogenase (0.8 units/mL) and NADP^+ (2 mg/mL). Control incubations were conducted under the same conditions, but without the NADPH generating system, UDPGA or microsomes. All incubations were performed in duplicate. Incubations were stopped by the addition of 0.5 mL ice-cold methanol. Samples were vortex-mixed. Denatured proteins were separated by centrifugation at 4300 rpm and 4° C. for 10 minutes (Model T21 super centrifuge, Sorvall). The protein pellets were extracted with 0.5 mL of methanol. The supernatant was combined for each sample, mixed and evaporated to a volume of about 0.3 mL under a nitrogen stream in a Zymark TurboVap LV evaporator (Caliper Life Science, Hopkinton, Mass.). The concentrated sample was centrifuged and aliquots were radioassayed and analyzed by HPLC. This method recovered an average of 92.1% of the radioactivity from the reaction mixture.
(§2) To evaluate species differences in cytochrome P450- and UGT-mediated metabolism, [^14C]DCDQ was incubated for 20 minutes with 0.5 mg/mL liver microsomal proteins from mice, rats, dogs or humans in the presence of the NADPH regenerating system or UDPGA. The assay conditions were the same as described above, and DCDQ concentrations were 12 μM and 56 μM for cytochrome P450- and UGT-mediated metabolism, respectively.
(§3) A Waters model 2690 HPLC system (Waters Corp., Milford, Mass.) with a built-in autosampler was used for analysis. Separations were accomplished on a Phenomenex Luna C18(2) column (2×150 mm, 5 μm) (Phenomenex, Torrance, Calif.) coupled with a filter (4×2 mm) cartridge. A variable wavelength UV detector set to monitor 250 nm and Flo-One β Model A525 radioactivity flow detector (Perkin Elmer) with a 250 μL LQTR flow cell were used for data acquisition. The flow rate of Ultima Flow M scintillation fluid was 1 mL/min, providing a mixing ratio of scintillation cocktail to mobile phase of 5:1. […]

[3] = Incubation of [14C]DCDQ with human liver microsomes (Km values, metabolite formation); format: in vitro ADME; conditions: for metabolite detected in microsomal incubation: human
Method: as §1
(§4) Initial rate conditions were determined for DCDQ metabolism in incubations with human liver microsomes in the presence of NADPH or UDPGA. Incubations for the time course study contained 20 μM of [^14C]DCDQ and 0.5 mg/mL of microsomal proteins, and were incubated at 37° C. with mild shaking for 0, 5, 10, 20, 30, 40, 50 and 60 minutes. The protein dependence study was conducted with 20 μM of [^14C]DCDQ incubated for 20 minutes with 0, 0.1, 0.25, 0.5, 0.75 and 1.0 mg/mL of microsomal proteins.
(§5) The Km values were determined with 0.5 mg/mL of human liver microsomes incubated with [^14C]DCDQ for 20 minutes with the NADPH regenerating system or for 10 minutes with UDPGA. [^14C]DCDQ concentrations used were 0.5,1, 5, 10, 25, 50, 75 and 100 μM.
as §2
as §3, with “5:1. The sample chamber in the autosampler was maintained at 4° C., while the column was at ambient temperature of about 20° C. The mobile phase consisted of 10 mM ammonium acetate, pH 4.5 (A) and methanol (B) and was delivered at 0.2 mL/min. The linear gradient conditions were as follows:” for “5:1.”

[4] = system: cytochrome P450 (NADPH-dependent metabolism); test: as above; format: in vitro ADME; conditions: pH 7.4; 0.5 mg/mL human liver microsomes, [14C]DCDQ 0.5-100 μM, NADPH regenerating system, 20 min
Method: as §1, §4, §5, §2
as §3, with “5:1. The sample chamber in the autosampler was maintained at 4° C., while the column was at ambient temperature of about 20° C. The mobile phase consisted of 10 mM ammonium acetate, pH 4.5 (A) and methanol (B) and was delivered at 0.2 mL/min. The linear gradient conditions were as follows:” for “5:1.”

[5] = NADPH regenerating system, 12 μM DCDQ, 20 min

c1cc2c3c(c1)[C@H]1CCC[C@H]1CN3CCNC2 [DCDQ, (9aR,12aS)-4,5,6,7,9,9a,10,11,12,12a-decahydro-cyclopenta[c][1,4]diazepine[6,7,1-ij]quinoline, reference compound]
Matrix [1]: P, U, F

OC1CN2C[C@@H]3CCC[C@@H]3c3cccc(c32)CN1 (stereo partly shown) [Metabolite M1, hydroxy DCDQ]
metabolite detected in microsomal incubation [2, 5]: not detected
metabolite detected in microsomal incubation [3, 5]: detected
Km at 20 min [4]: 10.8 µM
Matrix [1]: P, U, B

OC1[C@@H]2CCC[C@@H]2c2cccc3c2N1CCNC3 (stereo partly shown) [Metabolite M2, hydroxy DCDQ]
metabolite detected in microsomal incubation [2, 5]: observed
metabolite detected in microsomal incubation [3, 5]: detected
Km at 20 min [4]: 8.9 to 13.8 µM
Matrix [1]: P, U

[O-][N+]12CCN=Cc3cccc(c31)[C@H]1CCC[C@H]1C2 (stereo partly shown) [Metabolite M5, DCDQ imine N-oxide]
metabolite detected in microsomal incubation [2, 5]: detected
metabolite detected in microsomal incubation [3, 5]: detected
Km at 20 min [4]: 36.2 µM

O=C(O)[C@H]1O[C@@H](OC(=O)N2CCN3C[C@@H]4CCC[C@@H]4c4cccc(c43)C2)[C@H](O)[C@@H](O)[C@@H]1O [Metabolite M6, carbamoyl glucuronide of DCDQ]
metabolite detected in microsomal incubation ([2]; UDPGA, 56 μM DCDQ): detected
amount of metabolite detected ([3]; human liver microsomes, DCDQ 20 μM, both NADPH and UDPGA): only minor amounts
metabolite detected in microsomal incubation ([3]; UDPGA, 56 μM DCDQ): detected

O=C1CC[C@@H]2c3cccc4c3N(CCNC4)C[C@H]12 [Metabolite M7, 17-keto DCDQ]
Matrix [1]: P, U, B
